Reference: US10017520B2, “Myc modulators and uses thereof” (Massachusetts Institute of Technology, priority 2014, dated 2018)

Tested on: c-Myc
Test: c-Myc reporter gene assay (Qiagen) in HEK293T cells
Type: cell-based
Details: treatment 16 hours, Firefly/Renilla ratio
Experimental: Compound 1's activity against Myc was measured as a Firefly/Renilla ratio, using the Myc reporter assay (Qiagen) in HEK293T cells after treatment with compound 1 for 16 hours. Results are expressed as a mean+/−SD (n=3). SD: standard deviation.
Select compounds described herein that were SMM assay positives were evaluated in several versions of a c-Myc reporter gene assay, including a commercial assay from Qiagen. The compounds' activities against c-Myc were measured as a Firefly/Renilla ratio, using the Myc reporter assay (Qiagen) in HEK293T cells after treatment with the compounds for 16 hours.

Row | SMILES | IC50 (Homo sapiens, HEK-293T, 16 h) [µM] | further results
1 | CN(C)Cc1ccc(Sc2nc3ccccc3[nH]2)o1 [Compound 49, 1-(5-((1H-benzo[d]imidazol-2-yl)thio)furan-2-yl)-N,N-dimethylmethanamine] | 59.4 | –
2 | CC(C)N1C(=O)S/C(=C\c2cccc(Oc3nc4ccccc4[nH]3)c2)C1=O [Compound 65, (Z)-5-(3-((1H-benzo[d]imidazol-2-yl)oxy)benzylidene)-3-isopropylthiazolidine-2,4-dione] | 0.99 | –
3 | CC(C)N1C(=O)S/C(=C\c2ccc(Sc3nc4ccc([N+](=O)[O-])cc4[nH]3)o2)C1=O [Compound 57, (Z)-3-isopropyl-5-((5-((6-nitro-1H-benzo[d]imidazol-2-yl)thio)furan-2-yl)methylene)thiazolidine-2,4-dione] | 0.36 | –
4 | CC(C)N1C(=O)S/C(=C\c2ccc(Sc3nc4ccccc4[nH]3)s2)C1=O [Compound 11, (Z)-5-((5-((1H-benzo[d]imidazol-2-yl)thio)thiophen-2-yl)methylene)-3-isopropylthiazolidine-2,4-dione] | – | IC50 (Homo sapiens, HEK-293T): 1.62 µM
5 | O=C(O)CN1C(=O)S/C(=C\c2ccc(Sc3nc4ccccc4[nH]3)o2)C1=O [Compound 13, (Z)-2-(5-((5-((1H-benzo[d]imidazol-2-yl)thio)furan-2-yl)methylene)-2,4-dioxothiazolidin-3-yl)acetic acid] | – | c-Myc reporter assay IC50: inactive
6 | CN1C(=O)C(=Cc2ccc(Sc3nc4ccccc4[nH]3)o2)C(=O)N(C)C1=O [Compound 53, 5-((5-((1H-benzo[d]imidazol-2-yl)thio)furan-2-yl)methylene)-1,3-dimethylpyrimidine-2,4,6(1H,3H,5H)-trione] | – | IC50 (Homo sapiens, HEK-293T): 26.8 µM
7 | CC(C)N1C(=O)S/C(=C\c2ccc(Sc3nc4ccccc4[nH]3)cc2)C1=O [Compound 64, (Z)-5-(4-((1H-benzo[d]imidazol-2-yl)thio)benzylidene)-3-isopropylthiazolidine-2,4-dione] | 1.82 | –
8 | O=C(Nc1ccccc1)c1ccc(Sc2nc3ccccc3[nH]2)o1 [Compound 42, 5-((1H-benzo[d]imidazol-2-yl)thio)-N-phenylfuran-2-carboxamide] | 3.32 | –
9 | CC(C)N1C(=O)S/C(=C\c2ccc(Sc3nc4ccc(OC(F)(F)F)cc4[nH]3)o2)C1=O [Compound 56, (Z)-3-isopropyl-5-((5-((6-(trifluoromethoxy)-1H-benzo[d]imidazol-2-yl)thio)furan-2-yl)methylene)thiazolidine-2,4-dione] | 0.44 | –
10 | CCC(C)N1C(=O)S/C(=C\c2ccc(Sc3nc4ccccc4[nH]3)o2)C1=O (stereo not drawn) [Compound 31] | 2.22 | –
11 | CC(=O)Nc1ccc2nc(Sc3ccc(/C=C4\SC(=O)N(C(C)C)C4=O)o3)[nH]c2c1 [Compound 62, (Z)—N-(2-((5-((3-isopropyl-2,4-dioxothiazolidin-5-ylidene)methyl)furan-2-yl)thio)-1H-benzo[d]imidazol-6-yl)acetamide] | 0.93 | –
12 | COC(=O)c1ccc2nc(Sc3ccc(/C=C4\SC(=O)N(C(C)C)C4=O)o3)[nH]c2c1 [Compound 63, (Z)-methyl 2-((5-((3-isopropyl-2,4-dioxothiazolidin-5-ylidene)methyl)furan-2-yl)thio)-1H-benzo[d]imidazole-6-carboxylate] | 1.49 | –
13 | CC(C)N1C(=O)S/C(=C\c2ccc(Sc3nc4ccc(NC(=O)c5ccccc5)cc4[nH]3)o2)C1=O [Compound 61, (Z)—N-(2-((5-((3-isopropyl-2,4-dioxothiazolidin-5-ylidene)methyl)furan-2-yl)thio)-1H-benzo[d]imidazol-6-yl)benzamide] | 0.4 | –
14 | CC(C)N1C(=O)S/C(=C\c2ccc(Sc3ncc[nH]3)o2)C1=O [Compound 16, (Z)-5-((5-((1H-imidazol-2-yl)thio)furan-2-yl)methylene)-3-isopropylthiazolidine-2,4-dione] | 20.8 | –
15 | O=C1CSC(=O)N1Cc1ccc(Sc2nc3ccccc3[nH]2)o1 [Compound 67, 3-((5-((1H-benzo[d]imidazol-2-yl)thio)furan-2-yl)methyl)thiazolidine-2,4-dione] | 30 | –
16 | CC(C)N1C(=O)S/C(=C\c2ccc(Sc3ccccn3)o2)C1=O [Compound 17, (Z)-3-isopropyl-5-((5-(pyridin-2-ylthio)furan-2-yl)methylene)thiazolidine-2,4-dione] | 7.67 | –
17 | O=C(O)c1ccc(Sc2nc3ccccc3[nH]2)o1 [Compound 41, 5-((1H-benzo[d]imidazol-2-yl)thio)furan-2-carboxylic acid] | – | c-Myc reporter assay IC50: non active
18 | COC(=O)C(C)N1C(=O)S/C(=C\C=C\c2ccco2)C1=O (stereo not drawn) [Compound 38] | > 100 | –
19 | COC(=O)CN1C(=O)S/C(=C\c2ccc(Sc3nc4ccccc4[nH]3)o2)C1=O [Compound 15, (Z)-methyl 2-(5-((5-((1H-benzo[d]imidazol-2-yl)thio)furan-2-yl)methylene)-2,4-dioxothiazolidin-3-yl)acetate] | 3.26 | –
20 | CC(C)NCc1ccc(Sc2nc3ccccc3[nH]2)o1 [Compound 46] | 57.5 | –
21 | CC(C)(C)OC(=O)CN1C(=O)S/C(=C\c2ccc(Sc3nc4ccccc4[nH]3)o2)C1=O [Compound 14, (Z)-tert-butyl 2-(5-((5-((1H-benzo[d]imidazol-2-yl)thio)furan-2-yl)methylene)-2,4-dioxothiazolidin-3-yl)acetate] | 1.96 | –

Row | SMILES | IC50 (Homo sapiens, HEK-293T, 16 h) [µM] | further results
22 | CC(C)N1C(=O)S/C(=C\c2ccc(Sc3nc4ccc(N)cc4[nH]3)o2)C1=O [Compound 60, (Z)-5-((5-((6-amino-1H-benzo[d]imidazol-2-yl)thio)furan-2-yl)methylene)-3-isopropylthiazolidine-2,4-dione] | 4.56 | –
23 | O=C1NC(=O)C(=Cc2ccc(Sc3nc4ccccc4[nH]3)o2)C(=O)N1 [Compound 54, 5-((5-((1H-benzo[d]imidazol-2-yl)thio)furan-2-yl)methylene)pyrimidine-2,4,6(1H,3H,5H)-trione] | – | c-Myc reporter assay IC50: non active
24 | CCN1CCN(Cc2ccc(Sc3nc4ccccc4[nH]3)o2)CC1 [Compound 48, 2-((5-((4-ethylpiperazin-1-yl)methyl)furan-2-yl)thio)-1H-benzo[d]imidazole] | 10.2 | –
25 | O=C(CN1C(=O)S/C(=C\c2ccc(Sc3nc4ccccc4[nH]3)o2)C1=O)N1CCN(c2ccccc2)CC1 [Compound 34] | 7.01 | –
26 | COC(=O)CNCc1ccc(Sc2nc3ccccc3[nH]2)o1 [Compound 50, Methyl 2-(((5-((1H-benzo[d]imidazol-2-yl)thio)furan-2-yl)methyl)amino)acetate] | 75.9 | –
27 | CCNC(=O)NCCCN1C(=O)S/C(=C\c2ccc(Sc3nc4ccccc4[nH]3)o2)C1=O [Compound 21] | 6.77 | –
28 | CC(C)N1C(=O)S/C(=C\c2cc3ccc(Sc4nc5ccccc5[nH]4)cc3o2)C1=O [Compound 68, (Z)-5-((6-((1H-benzo[d]imidazol-2-yl)thio)benzofuran-2-yl)methylene)-3-isopropylthiazolidine-2,4-dione] | 0.54 | –
29 | O=C1S/C(=C\c2ccc(Sc3nc4ccccc4[nH]3)o2)C(=O)N1c1ccccc1 [Compound 35] | 11.9 | –
30 | O=C(NCCCN1C(=O)S/C(=C\c2ccc(Sc3nc4ccccc4[nH]3)o2)C1=O)Nc1ccccc1 [Compound 20, (Z)-1-(3-(5-((5-((1H-benzo[d]imidazol-2-yl)thio)furan-2-yl)methylene)-2,4-dioxothiazolidin-3-yl)propyl)-3-phenylurea] | 1.22 | –
31 | CC(C)NC(=O)c1ccc(Sc2nc3ccccc3[nH]2)o1 [Compound 43, 5-((1H-benzo[d]imidazol-2-yl)thio)-N-isopropylfuran-2-carboxamide] | 7.9 | –
32 | COC(=O)c1ccc(Sc2nc3ccccc3[nH]2)o1 [Compound 51, Methyl 5-((1H-benzo[d]imidazol-2-yl)thio)furan-2-carboxylate] | – | c-Myc reporter assay IC50: non active
33 | CC(C)N1C(=O)S/C(=C\c2ccc(Sc3nc4ccccc4n3C)o2)C1=O [Compound 18, (Z)-3-isopropyl-5-((5-((1-methyl-1H-benzo[d]imidazol-2-yl)thio)furan-2-yl)methylene)thiazolidine-2,4-dione] | 1.67 | –
34 | CC(/C=C1\SC(=O)N(C(C)C)C1=O)=C\c1ccccc1 [Compound 37] | > 100 | –
35 | Cc1ccc(Sc2ccc(/C=C3\SC(=O)N(C(C)C)C3=O)o2)cc1 [Compound 39] | > 100 | –
36 | CC(=O)c1ccc2nc(Sc3ccc(/C=C4\SC(=O)N(C(C)C)C4=O)o3)[nH]c2c1 [Compound 58, (Z)-5-((5-((6-acetyl-H-benzo[d]imidazol-2-yl)thio)furan-2-yl)methylene)-3-isopropylthiazolidine-2,4-dione] | 0.26 | –
37 | COC(=O)C(C)N1C(=O)S/C(=C\c2ccc(Sc3nc4ccccc4[nH]3)o2)C1=O (stereo not drawn) [Compound 32] | 6.24 | –
38 | NCCCN1C(=O)S/C(=C\c2ccc(Sc3nc4ccccc4[nH]3)o2)C1=O [Compound 19, (Z)-5-((5-((1H-benzo[d]imidazol-2-yl)thio)furan-2-yl)methylene)-3-(3-aminopropyl)thiazolidine-2,4-dione 2,2,2-trifluoroacetate] | 7.3 | IC50: 6.52 µM
39 | c1ccc2[nH]c(Sc3ccc(CN4CCOCC4)o3)nc2c1 [Compound 47, 4-((5-((1H-benzo[d]imidazol-2-yl)thio)furan-2-yl)methyl)morpholine] | 32.9 | –
40 | c1ccc(NCc2ccc(Sc3nc4ccccc4[nH]3)o2)cc1 [Compound 45, N-((5-((1H-benzo[d]imidazol-2-yl)thio)furan-2-yl)methyl)aniline] | 4.66 | –
41 | O=C(c1ccc(Sc2nc3ccccc3[nH]2)o1)N1CCOCC1 [Compound 44, (5-((1H-benzo[d]imidazol-2-yl)thio)furan-2-yl)(morpholino)methanone] | – | c-Myc reporter assay IC50: non active
